# Key:
# Assay in all cases: biochemical
# [1] = biological target: T1, panel of 374 wild-type kinases (Homo sapiens, UniProt O60285); settings: read-out: % Enzyme Activity (relative to DMSO controls), ARK5/NUAK1
# T1 construct: purchased Reaction Biology Corporation
# T1 sequence (O60285 1-661): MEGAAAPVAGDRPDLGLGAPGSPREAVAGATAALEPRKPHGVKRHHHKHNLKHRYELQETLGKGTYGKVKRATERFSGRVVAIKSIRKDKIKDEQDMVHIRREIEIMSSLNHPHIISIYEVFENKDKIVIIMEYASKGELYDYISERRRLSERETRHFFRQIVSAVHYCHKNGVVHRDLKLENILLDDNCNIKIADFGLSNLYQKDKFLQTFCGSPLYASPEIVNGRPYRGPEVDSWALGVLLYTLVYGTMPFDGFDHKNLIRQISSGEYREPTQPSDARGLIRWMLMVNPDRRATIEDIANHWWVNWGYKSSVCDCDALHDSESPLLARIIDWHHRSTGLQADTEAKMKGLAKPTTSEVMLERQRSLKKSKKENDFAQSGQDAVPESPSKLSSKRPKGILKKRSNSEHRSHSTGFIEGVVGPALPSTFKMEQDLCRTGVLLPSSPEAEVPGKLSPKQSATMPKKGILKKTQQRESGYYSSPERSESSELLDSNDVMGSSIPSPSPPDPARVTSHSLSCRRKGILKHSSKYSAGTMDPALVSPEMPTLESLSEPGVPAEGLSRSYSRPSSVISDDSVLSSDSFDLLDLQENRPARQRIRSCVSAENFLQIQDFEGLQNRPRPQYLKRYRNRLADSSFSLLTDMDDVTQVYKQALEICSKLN
# [2] = biological target: T2, panel of 374 wild-type kinases (Homo sapiens, UniProt P35968); settings: read-out: % Enzyme Activity (relative to DMSO controls), KDR/VEGFR2
# T2 construct: purchased Reaction Biology Corporation
# T2 sequence (P35968 20-1356): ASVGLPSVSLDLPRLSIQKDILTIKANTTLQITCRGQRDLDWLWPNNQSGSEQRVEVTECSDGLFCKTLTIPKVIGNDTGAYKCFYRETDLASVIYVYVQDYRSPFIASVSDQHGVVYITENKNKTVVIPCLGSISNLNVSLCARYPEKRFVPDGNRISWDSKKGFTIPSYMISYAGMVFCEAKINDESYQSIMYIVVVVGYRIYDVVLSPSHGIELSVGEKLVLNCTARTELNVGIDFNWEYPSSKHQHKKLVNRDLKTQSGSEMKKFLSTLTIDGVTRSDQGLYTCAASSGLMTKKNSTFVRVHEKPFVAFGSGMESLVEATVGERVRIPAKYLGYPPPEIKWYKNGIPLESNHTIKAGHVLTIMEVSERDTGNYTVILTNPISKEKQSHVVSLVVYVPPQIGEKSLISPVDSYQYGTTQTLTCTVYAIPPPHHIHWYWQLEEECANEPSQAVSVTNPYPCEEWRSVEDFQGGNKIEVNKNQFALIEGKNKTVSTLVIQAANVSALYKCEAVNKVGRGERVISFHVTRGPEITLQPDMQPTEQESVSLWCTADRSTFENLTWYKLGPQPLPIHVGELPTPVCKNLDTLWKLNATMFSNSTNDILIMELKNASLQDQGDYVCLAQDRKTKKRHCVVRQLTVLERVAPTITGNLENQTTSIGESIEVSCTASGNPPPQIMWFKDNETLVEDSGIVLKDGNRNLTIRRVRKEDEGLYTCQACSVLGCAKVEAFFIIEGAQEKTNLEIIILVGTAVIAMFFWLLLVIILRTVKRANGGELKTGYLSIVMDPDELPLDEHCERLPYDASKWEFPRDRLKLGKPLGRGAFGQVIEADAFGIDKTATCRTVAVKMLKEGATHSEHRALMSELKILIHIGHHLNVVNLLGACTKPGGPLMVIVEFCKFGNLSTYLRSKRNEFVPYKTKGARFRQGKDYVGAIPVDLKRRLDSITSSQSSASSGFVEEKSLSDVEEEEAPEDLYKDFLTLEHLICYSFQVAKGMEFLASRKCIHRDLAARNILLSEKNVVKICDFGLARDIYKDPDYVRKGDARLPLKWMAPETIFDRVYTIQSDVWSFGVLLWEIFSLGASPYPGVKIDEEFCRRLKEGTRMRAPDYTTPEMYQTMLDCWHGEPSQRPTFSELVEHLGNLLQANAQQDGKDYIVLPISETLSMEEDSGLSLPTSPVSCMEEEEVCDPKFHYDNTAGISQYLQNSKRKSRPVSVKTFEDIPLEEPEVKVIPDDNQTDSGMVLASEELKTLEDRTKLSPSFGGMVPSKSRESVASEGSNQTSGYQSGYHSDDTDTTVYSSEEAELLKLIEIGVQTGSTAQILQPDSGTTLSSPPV
# [3] = biological target: T3, panel of 374 wild-type kinases (Homo sapiens, UniProt Q9H0K1); settings: read-out: % Enzyme Activity (relative to DMSO controls), kinase SIK2
# T3 construct: purchased Reaction Biology Corporation
# T3 sequence (Q9H0K1 whole entry): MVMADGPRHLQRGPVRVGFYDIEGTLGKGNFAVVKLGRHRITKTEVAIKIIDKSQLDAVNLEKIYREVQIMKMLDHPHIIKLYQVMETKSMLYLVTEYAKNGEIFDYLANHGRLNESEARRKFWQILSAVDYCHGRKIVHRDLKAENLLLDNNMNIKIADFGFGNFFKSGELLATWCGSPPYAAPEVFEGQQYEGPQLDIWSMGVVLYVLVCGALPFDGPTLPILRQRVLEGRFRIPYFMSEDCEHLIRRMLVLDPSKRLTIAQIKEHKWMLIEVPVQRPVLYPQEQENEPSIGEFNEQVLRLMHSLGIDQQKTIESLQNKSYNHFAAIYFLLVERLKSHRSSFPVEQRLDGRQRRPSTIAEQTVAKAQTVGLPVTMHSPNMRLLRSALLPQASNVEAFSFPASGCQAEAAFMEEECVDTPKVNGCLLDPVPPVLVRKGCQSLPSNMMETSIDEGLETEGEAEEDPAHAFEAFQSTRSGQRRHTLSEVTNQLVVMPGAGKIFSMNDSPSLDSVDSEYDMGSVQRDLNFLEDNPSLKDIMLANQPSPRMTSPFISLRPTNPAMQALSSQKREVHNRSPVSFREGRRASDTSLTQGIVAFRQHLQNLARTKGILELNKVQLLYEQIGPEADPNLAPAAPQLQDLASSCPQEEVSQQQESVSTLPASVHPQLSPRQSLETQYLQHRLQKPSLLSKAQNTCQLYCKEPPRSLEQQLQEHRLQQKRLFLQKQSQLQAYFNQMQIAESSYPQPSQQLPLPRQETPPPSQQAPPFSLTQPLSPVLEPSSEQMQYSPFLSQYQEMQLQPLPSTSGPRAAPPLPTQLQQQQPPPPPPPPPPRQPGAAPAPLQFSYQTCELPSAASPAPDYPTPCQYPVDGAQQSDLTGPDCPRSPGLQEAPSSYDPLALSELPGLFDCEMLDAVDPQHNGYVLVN
# [4] = biological target: T4, panel of 374 wild-type kinases (Homo sapiens, UniProt P54760); settings: read-out: % Enzyme Activity (relative to DMSO controls), EPHB4
# T4 construct: purchased Reaction Biology Corporation
# T4 sequence (P54760 16-987): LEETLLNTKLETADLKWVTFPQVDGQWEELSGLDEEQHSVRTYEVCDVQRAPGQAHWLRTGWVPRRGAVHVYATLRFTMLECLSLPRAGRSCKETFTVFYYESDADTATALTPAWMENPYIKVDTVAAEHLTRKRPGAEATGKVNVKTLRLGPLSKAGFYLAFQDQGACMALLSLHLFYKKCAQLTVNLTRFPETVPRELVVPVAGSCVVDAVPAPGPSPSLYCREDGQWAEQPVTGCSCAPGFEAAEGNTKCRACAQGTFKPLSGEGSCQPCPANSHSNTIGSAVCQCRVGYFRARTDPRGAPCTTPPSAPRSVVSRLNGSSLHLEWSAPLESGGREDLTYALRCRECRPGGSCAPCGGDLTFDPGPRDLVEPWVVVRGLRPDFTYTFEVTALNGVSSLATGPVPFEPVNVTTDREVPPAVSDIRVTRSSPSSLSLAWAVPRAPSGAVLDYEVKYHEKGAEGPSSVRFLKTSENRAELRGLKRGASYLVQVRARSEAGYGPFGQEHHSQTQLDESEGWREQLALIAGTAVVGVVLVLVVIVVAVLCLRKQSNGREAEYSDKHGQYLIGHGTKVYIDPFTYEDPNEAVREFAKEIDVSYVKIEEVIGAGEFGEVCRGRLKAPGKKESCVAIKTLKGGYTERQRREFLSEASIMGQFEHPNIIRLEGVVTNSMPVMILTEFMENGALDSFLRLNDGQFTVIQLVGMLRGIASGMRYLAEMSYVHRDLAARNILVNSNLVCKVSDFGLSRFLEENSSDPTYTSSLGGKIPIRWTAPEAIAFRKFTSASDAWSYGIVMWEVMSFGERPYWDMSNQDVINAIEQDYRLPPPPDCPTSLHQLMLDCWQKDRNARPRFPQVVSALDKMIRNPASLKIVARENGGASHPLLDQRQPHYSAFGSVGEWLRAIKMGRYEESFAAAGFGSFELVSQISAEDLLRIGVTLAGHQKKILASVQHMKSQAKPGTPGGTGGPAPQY
# [5] = biological target: T5, panel of 374 wild-type kinases (Homo sapiens, UniProt O14920); settings: read-out: % Enzyme Activity (relative to DMSO controls), IKKb/IKBKB
# T5 construct: purchased Reaction Biology Corporation
# T5 sequence (O14920 1-756): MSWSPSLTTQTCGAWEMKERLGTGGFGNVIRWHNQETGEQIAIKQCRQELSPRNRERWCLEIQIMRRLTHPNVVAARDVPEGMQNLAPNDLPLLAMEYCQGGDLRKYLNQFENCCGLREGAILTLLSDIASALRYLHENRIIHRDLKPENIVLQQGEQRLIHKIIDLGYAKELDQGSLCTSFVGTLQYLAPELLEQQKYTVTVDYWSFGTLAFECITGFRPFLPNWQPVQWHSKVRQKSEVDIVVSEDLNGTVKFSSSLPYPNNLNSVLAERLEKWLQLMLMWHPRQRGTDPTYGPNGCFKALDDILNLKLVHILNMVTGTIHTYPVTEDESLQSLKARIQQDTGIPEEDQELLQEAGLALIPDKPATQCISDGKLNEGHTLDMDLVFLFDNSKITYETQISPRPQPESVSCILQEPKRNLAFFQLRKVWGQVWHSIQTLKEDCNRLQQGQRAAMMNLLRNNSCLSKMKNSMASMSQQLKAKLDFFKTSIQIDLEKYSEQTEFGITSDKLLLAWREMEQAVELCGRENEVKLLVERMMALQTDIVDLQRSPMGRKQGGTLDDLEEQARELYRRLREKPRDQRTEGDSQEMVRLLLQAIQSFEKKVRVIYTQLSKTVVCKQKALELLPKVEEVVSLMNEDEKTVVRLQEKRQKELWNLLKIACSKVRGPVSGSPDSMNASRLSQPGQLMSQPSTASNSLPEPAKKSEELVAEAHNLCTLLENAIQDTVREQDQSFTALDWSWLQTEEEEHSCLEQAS
Compound,remaining activity at 5 µM [1],remaining activity at 5 µM [2],remaining activity at 5 µM [3],remaining activity at 5 µM [4],remaining activity at 5 µM [5],remaining activity at 10 µM ([1]; 10 uM),remaining activity at 10 µM ([2]; 10 uM),remaining activity at 10 µM ([3]; 10 uM),remaining activity at 10 µM ([4]; 10 uM),remaining activity at 10 µM ([5]; 10 uM)
"O=C(Nc1cnn(-c2csc(C(=O)NC3COC3)c2)c1)Nc1ccccc1Cl [Compound 17, 4-(4-(3-(2-chlorophenyl)ureido)-1H-pyrazol-1-yl)-N-(oxetan-3-yl)thiophene-2-carboxamide]",97.9%,95.2%,97%,97.8%,95.6%,–,–,–,–,–
"O=C(Nc1cnn(-c2csc(C(=O)NC3COC3)c2)c1)Nc1c(F)cccc1Cl [Compound 25, 4-(4-(3-(2-chloro-6-fluorophenyl)ureido)-1H-pyrazol-1-yl)-N-(oxetan-3-yl)thiophene-2-carboxamide]",95.2%,88.3%,95.8%,98.1%,94.7%,–,–,–,–,–
"Cc1sc(C(=O)NC2COC2)cc1-n1cc(NC(=O)Nc2c(F)cccc2Cl)cn1 [Compound 27, 4-(4-(3-(2-chloro-6-fluorophenyl)ureido)-1H-pyrazol-1-yl)-5-methyl-N-(oxetan-3-yl)thiophene-2-carboxamide]",–,–,–,–,–,96.9%,88.2%,89.8%,93.7%,86.8%

# — patent US20240246942A1, “KINASE INHIBITORS FOR THE TREATMENT OF NEURODEGENERATIVE DISEASES” (priority 2020, published 2024)
